# Test results: article PMC8699473, “An Easily Expandable Multi-Drug LC-MS Assay for the Simultaneous Quantification of 57 Oral Antitumor Drugs in Human Plasma” (Cancers, 2021)
# What was measured:
# [1] = parameters: method as in supplement references [1-55] as printed per drug; details: minimum steady-state blood plasma concentration after multiple dose administration; ref supplement references [1-55] per drug; cited from earlier work
# [2] = Long-term stability in spiked pooled human plasma
# [3] = Short-term stability in spiked pooled human plasma (bench-top, 4 °C, 56 °C)
# [4] = Autosampler stability of ready for injection samples; type: physicochemical, human
# [5] = Freeze-thaw stability in spiked pooled human plasma; type: physicochemical
smiles,measurement,setting,value
Cn1cnc2c(F)c(Nc3ccc(Br)cc3F)c(C(=O)NOCCO)cc21 [Binimetinib],cmin,[1],53.3 ng/mL
same,"Long-term stability, 1 month, -20°C Accuracy [%]",[2]; validation standard 2xLLOV,94.8%
same,"Long-term stability, 1 month, -80°C Accuracy [%]",[2]; validation standard 2xLLOV,97.4%
same,"Long-term stability, 2 month, -20°C Accuracy [%]",[2]; validation standard 2xLLOV,105.7%
same,"Long-term stability, 2 month, -80°C Accuracy [%]",[2]; validation standard 2xLLOV,106.4%
same,"Long-term stability, 3 month, -20°C Accuracy [%]",[2]; validation standard 2xLLOV,99.5%
same,"Long-term stability, 3 month, -80°C Accuracy [%]",[2]; validation standard 2xLLOV,104.4%
same,"Long-term stability, 6 weeks, 4°C, without daylight Accuracy [%]",[2]; validation standard 2xLLOV,95.3%
same,"Long-term stability, 1 month, -20°C Accuracy [%]",[2]; validation standard LLOV,103.4%
same,"Long-term stability, 1 month, -80°C Accuracy [%]",[2]; validation standard LLOV,106.3%
same,"Long-term stability, 2 month, -20°C Accuracy [%]",[2]; validation standard LLOV,116.3%
same,"Long-term stability, 2 month, -80°C Accuracy [%]",[2]; validation standard LLOV,124.3%
same,"Long-term stability, 3 month, -20°C Accuracy [%]",[2]; validation standard LLOV,105.4%
same,"Long-term stability, 3 month, -80°C Accuracy [%]",[2]; validation standard LLOV,104.6%
same,"Long-term stability, 6 weeks, 4°C, without daylight Accuracy [%]",[2]; validation standard LLOV,104.1%
same,"Long-term stability, 1 month, -20°C Accuracy [%]",[2]; validation standard MOV,92.3%
same,"Long-term stability, 1 month, -80°C Accuracy [%]",[2]; validation standard MOV,94.4%
same,"Long-term stability, 2 month, -20°C Accuracy [%]",[2]; validation standard MOV,95.9%
same,"Long-term stability, 2 month, -80°C Accuracy [%]",[2]; validation standard MOV,96.6%
same,"Long-term stability, 3 month, -20°C Accuracy [%]",[2]; validation standard MOV,97.9%
same,"Long-term stability, 3 month, -80°C Accuracy [%]",[2]; validation standard MOV,98.7%
same,"Long-term stability, 6 weeks, 4°C, without daylight Accuracy [%]",[2]; validation standard MOV,109.9%
same,"Long-term stability, 1 month, -20°C Accuracy [%]",[2]; validation standard ULOV,99.6%
same,"Long-term stability, 1 month, -80°C Accuracy [%]",[2]; validation standard ULOV,97.2%
same,"Long-term stability, 2 month, -20°C Accuracy [%]",[2]; validation standard ULOV,99.2%
same,"Long-term stability, 2 month, -80°C Accuracy [%]",[2]; validation standard ULOV,101.1%
same,"Long-term stability, 3 month, -20°C Accuracy [%]",[2]; validation standard ULOV,98.9%
same,"Long-term stability, 3 month, -80°C Accuracy [%]",[2]; validation standard ULOV,102.6%
same,"Long-term stability, 6 weeks, 4°C, without daylight Accuracy [%]",[2]; validation standard ULOV,99.7%
same,"Short-time stability (1h, 56°C) Accuracy [%]",[3]; validation standard 2xLLOV,55.9%
same,"Short-time stability (24h, 4°C, without daylight) Accuracy [%]",[3]; validation standard 2xLLOV,105.5%
same,"Short-time stability (24h, RT, with daylight) Accuracy [%]",[3]; validation standard 2xLLOV,89.3%
same,"Short-time stability (24h, RT, without daylight) Accuracy [%]",[3]; validation standard 2xLLOV,86.4%
same,"Short-time stability (1h, 56°C) Accuracy [%]",[3]; validation standard LLOV,68.1%
same,"Short-time stability (24h, 4°C, without daylight) Accuracy [%]",[3]; validation standard LLOV,117.1%
same,"Short-time stability (24h, RT, with daylight) Accuracy [%]",[3]; validation standard LLOV,111.6%
same,"Short-time stability (24h, RT, without daylight) Accuracy [%]",[3]; validation standard LLOV,106.0%
same,"Short-time stability (1h, 56°C) Accuracy [%]",[3]; validation standard MOV,42.6%
same,"Short-time stability (24h, 4°C, without daylight) Accuracy [%]",[3]; validation standard MOV,94.8%
same,"Short-time stability (24h, RT, with daylight) Accuracy [%]",[3]; validation standard MOV,86.5%
same,"Short-time stability (24h, RT, without daylight) Accuracy [%]",[3]; validation standard MOV,89.2%
same,"Short-time stability (1h, 56°C) Accuracy [%]",[3]; validation standard ULOV,36.7%
same,"Short-time stability (24h, 4°C, without daylight) Accuracy [%]",[3]; validation standard ULOV,96.8%
same,"Short-time stability (24h, RT, with daylight) Accuracy [%]",[3]; validation standard ULOV,101.8%
same,"Short-time stability (24h, RT, without daylight) Accuracy [%]",[3]; validation standard ULOV,97.3%
same,"Autosampler (24h, 4°C) Accuracy [%]",[4]; validation standard 2xLLOV,104.7%
same,"Autosampler (72h, 4°C) Accuracy [%]",[4]; validation standard 2xLLOV,101.6%
same,"Autosampler (24h, 4°C) Accuracy [%]",[4]; validation standard LLOV,103.1%
same,"Autosampler (72h, 4°C) Accuracy [%]",[4]; validation standard LLOV,98.1%
same,"Autosampler (24h, 4°C) Accuracy [%]",[4]; validation standard MOV,105.0%
same,"Autosampler (72h, 4°C) Accuracy [%]",[4]; validation standard MOV,95.8%
same,"Autosampler (24h, 4°C) Accuracy [%]",[4]; validation standard ULOV,102.1%
same,"Autosampler (72h, 4°C) Accuracy [%]",[4]; validation standard ULOV,102.4%
same,Freeze-Thaw Accuracy [%],[5]; validation standard 2xLLOV,92.6%
same,Freeze-Thaw Accuracy [%],[5]; validation standard LLOV,93.8%
same,Freeze-Thaw Accuracy [%],[5]; validation standard MOV,100.1%
same,Freeze-Thaw Accuracy [%],[5]; validation standard ULOV,105.2%
CNC(=O)c1cc(Oc2ccc(NC(=O)Nc3ccc(Cl)c(C(F)(F)F)c3)cc2)ccn1 [Sorafenib],cmin,[1],3750 ng/mL
same,"Long-term stability, 1 month, -20°C Accuracy [%]",[2]; validation standard 2xLLOV,103.7%
same,"Long-term stability, 1 month, -80°C Accuracy [%]",[2]; validation standard 2xLLOV,110.1%
same,"Long-term stability, 2 month, -20°C Accuracy [%]",[2]; validation standard 2xLLOV,109.9%
same,"Long-term stability, 2 month, -80°C Accuracy [%]",[2]; validation standard 2xLLOV,106.2%
same,"Long-term stability, 3 month, -20°C Accuracy [%]",[2]; validation standard 2xLLOV,94.5%
same,"Long-term stability, 3 month, -80°C Accuracy [%]",[2]; validation standard 2xLLOV,108.7%
same,"Long-term stability, 6 weeks, 4°C, without daylight Accuracy [%]",[2]; validation standard 2xLLOV,74.5%
same,"Long-term stability, 1 month, -20°C Accuracy [%]",[2]; validation standard LLOV,106.1%
same,"Long-term stability, 1 month, -80°C Accuracy [%]",[2]; validation standard LLOV,102.7%
same,"Long-term stability, 2 month, -20°C Accuracy [%]",[2]; validation standard LLOV,109.0%
same,"Long-term stability, 2 month, -80°C Accuracy [%]",[2]; validation standard LLOV,106.5%
same,"Long-term stability, 3 month, -20°C Accuracy [%]",[2]; validation standard LLOV,100.5%
same,"Long-term stability, 3 month, -80°C Accuracy [%]",[2]; validation standard LLOV,111.4%
same,"Long-term stability, 6 weeks, 4°C, without daylight Accuracy [%]",[2]; validation standard LLOV,71.1%
same,"Long-term stability, 1 month, -20°C Accuracy [%]",[2]; validation standard MOV,106.1%
same,"Long-term stability, 1 month, -80°C Accuracy [%]",[2]; validation standard MOV,108.3%
same,"Long-term stability, 2 month, -20°C Accuracy [%]",[2]; validation standard MOV,112.2%
same,"Long-term stability, 2 month, -80°C Accuracy [%]",[2]; validation standard MOV,118.4%
same,"Long-term stability, 3 month, -20°C Accuracy [%]",[2]; validation standard MOV,94.0%
same,"Long-term stability, 3 month, -80°C Accuracy [%]",[2]; validation standard MOV,100.4%
same,"Long-term stability, 6 weeks, 4°C, without daylight Accuracy [%]",[2]; validation standard MOV,106.5%
same,"Long-term stability, 1 month, -20°C Accuracy [%]",[2]; validation standard ULOV,104.5%
same,"Long-term stability, 1 month, -80°C Accuracy [%]",[2]; validation standard ULOV,103.5%
same,"Long-term stability, 2 month, -20°C Accuracy [%]",[2]; validation standard ULOV,116.0%
same,"Long-term stability, 2 month, -80°C Accuracy [%]",[2]; validation standard ULOV,114.3%
same,"Long-term stability, 3 month, -20°C Accuracy [%]",[2]; validation standard ULOV,90.5%
same,"Long-term stability, 3 month, -80°C Accuracy [%]",[2]; validation standard ULOV,102.3%
same,"Long-term stability, 6 weeks, 4°C, without daylight Accuracy [%]",[2]; validation standard ULOV,99.7%
same,"Short-time stability (1h, 56°C) Accuracy [%]",[3]; validation standard 2xLLOV,38.6%
same,"Short-time stability (24h, 4°C, without daylight) Accuracy [%]",[3]; validation standard 2xLLOV,97.0%
same,"Short-time stability (24h, RT, with daylight) Accuracy [%]",[3]; validation standard 2xLLOV,85.6%
same,"Short-time stability (24h, RT, without daylight) Accuracy [%]",[3]; validation standard 2xLLOV,81.9%
same,"Short-time stability (1h, 56°C) Accuracy [%]",[3]; validation standard LLOV,28.2%
same,"Short-time stability (24h, 4°C, without daylight) Accuracy [%]",[3]; validation standard LLOV,96.0%
same,"Short-time stability (24h, RT, with daylight) Accuracy [%]",[3]; validation standard LLOV,83.4%
same,"Short-time stability (24h, RT, without daylight) Accuracy [%]",[3]; validation standard LLOV,72.1%
same,"Short-time stability (1h, 56°C) Accuracy [%]",[3]; validation standard MOV,38.4%
same,"Short-time stability (24h, 4°C, without daylight) Accuracy [%]",[3]; validation standard MOV,98.2%
same,"Short-time stability (24h, RT, with daylight) Accuracy [%]",[3]; validation standard MOV,89.2%
same,"Short-time stability (24h, RT, without daylight) Accuracy [%]",[3]; validation standard MOV,91.9%
same,"Short-time stability (1h, 56°C) Accuracy [%]",[3]; validation standard ULOV,34.6%
same,"Short-time stability (24h, 4°C, without daylight) Accuracy [%]",[3]; validation standard ULOV,92.5%
same,"Short-time stability (24h, RT, with daylight) Accuracy [%]",[3]; validation standard ULOV,91.0%
same,"Short-time stability (24h, RT, without daylight) Accuracy [%]",[3]; validation standard ULOV,89.2%
same,"Autosampler (24h, 4°C) Accuracy [%]",[4]; validation standard 2xLLOV,103.1%
same,"Autosampler (72h, 4°C) Accuracy [%]",[4]; validation standard 2xLLOV,104.1%
same,"Autosampler (24h, 4°C) Accuracy [%]",[4]; validation standard LLOV,112.0%
same,"Autosampler (72h, 4°C) Accuracy [%]",[4]; validation standard LLOV,104.9%
same,"Autosampler (24h, 4°C) Accuracy [%]",[4]; validation standard MOV,101.0%
same,"Autosampler (72h, 4°C) Accuracy [%]",[4]; validation standard MOV,103.5%
same,"Autosampler (24h, 4°C) Accuracy [%]",[4]; validation standard ULOV,101.7%
same,"Autosampler (72h, 4°C) Accuracy [%]",[4]; validation standard ULOV,98.3%
same,Freeze-Thaw Accuracy [%],[5]; validation standard 2xLLOV,97.6%
same,Freeze-Thaw Accuracy [%],[5]; validation standard LLOV,103.3%
same,Freeze-Thaw Accuracy [%],[5]; validation standard MOV,96.9%
same,Freeze-Thaw Accuracy [%],[5]; validation standard ULOV,98.7%
